Measurements from paper PMC7822874, “Chemoprotective antimalarials identified through quantitative high-throughput screening of Plasmodium blood and liver stage parasites” (Scientific Reports, 2021).

Test system: Plasmodium falciparum Dd2 asexual blood stage parasites
Test: microbe, parasite or virus in culture
Set-up: species or system Plasmodium falciparum Dd2 in human erythrocytes; single determination (one 11-point concentration-response curve)
Conditions: Plasmodium falciparum, DD2, Erythrocyte, 72 h; read-out: AC50

With `C=C[C@]1(C)C[C@@H](OC(=O)CSC(C)(C)CNC(=O)[C@H](N)C(C)C)[C@]2(C)[C@H](C)CC[C@]3(CCC(=O)[C@H]32)[C@@H](C)[C@@H]1O` [NCGC00167968-01] the AC50 was 8.41 µM.

Work on `COc1ccc(CN2CCCCCNC(=O)CC2c2ccccc2)cc1Cn1ccnc1` (stereo not drawn) [NCGC00465444-01] yielded an AC50 of 9.44 µM.

For `COc1ccc2cc1Nc1ccc(cc1)C[C@H](NCc1ccc(C)o1)C(=O)N(C)[C@@H](C(=O)NCc1ccccc1)C2` [NCGC00410280-01], the AC50 was 5.31 µM.

`CCOC(=O)c1nnn(-c2nonc2N)c1-c1ccc(Cl)cc1` [MLS000727794-01] gave an AC50 of 5.31 µM.

`COc1ccc(-c2csc3ncnc(N4CCN(S(=O)(=O)c5ccc(C(C)=O)cc5)CC4)c23)cc1` [MLS001160708-01] was tested, and the AC50 was 4.22 µM.

With `Cc1ccc(NC(=O)c2c(C)oc3ccc(O)c(CN4CCCCCC4)c23)cc1` [NCGC00115683-01] the AC50 was 2.11 µM.

`CC(C)CNc1nnnc2c1sc1nc(N3CCOCC3)c3c(c12)CCCC3` [MLS000779378-01] showed an AC50 of 15 µM.

`CN(Cc1ccccc1)C(=O)[C@H]1O[C@H](CCN2CCN(c3ccc(F)cc3)CC2)CC[C@@H]1O` [NCGC00401502-01] gave an AC50 of 5.96 µM.

For `Cc1ccc(C(=O)c2cc(C)sc2NC(=O)CN2CCN(C(=O)c3ccco3)CC2)cc1` [MLS000073677-01], the AC50 was 7.5 µM.

Work on `CCOc1ccc2c(c1)OC(c1ccc(C)cc1)(C(F)(F)F)NC2=O` (stereo not drawn) [MLS000392832-01] yielded an AC50 of 2.66 µM.

With `COc1cc2c(cc1OCc1ccccc1)N([S+](=O)([O-])c1cccnc1)CC21CCN(C)CC1` [NCGC00419860-01] the AC50 was 10.6 µM.

`CCn1cc(CN2CCC(N3CC(OCC4CC4)C34CCCCC4)CC2)cn1` (stereo not drawn) [NCGC00463414-01] showed an AC50 of 8.41 µM.

In the case of `C[S+](=O)([O-])c1cccc(-c2cnc3[nH]cc(CC(=O)NCc4cccnc4)c3c2)c1` [NCGC00412364-01], the AC50 is reported as 9.68 µM.

`COc1ccc2nc(N(Cc3cccnc3)C(=O)CCc3ccccc3)sc2c1` [NCGC00136611-01] was tested, and the AC50 was 6.68 µM.

In the case of `O=C(c1cccs1)N1CCC(O)(c2ccccc2)[C@H](N2CCCC2)C1` (stereo partly drawn) [NCGC00442580-01], the AC50 is reported as 9.44 µM.

`Cc1ccc(-n2ncc(C(=O)N3CCN(c4cc(Cl)ccc4C)CC3)c2C2CCN(C(=O)OC(C)(C)C)CC2)cc1` [NCGC00126953-01] gave an AC50 of 8.41 µM.

Compound `COc1ccc(-c2c3c(nc4sc(C(=O)Nc5ccc(F)cc5)c(N)c24)CC(C)(C)CC3=O)cc1` [NCGC00100718-01] has an AC50 of 0.944 µM.

With `Cc1oc2ccc(O)c(CN3CCCC(C)C3)c2c1C(=O)Nc1ccccc1` (stereo not drawn) [NCGC00115528-01] the AC50 was 2.11 µM.

With `CCCOc1ccc(-c2nonc2NC(=O)c2cc(OC)c(OC)c(OC)c2)cc1OCCC` [NCGC00116043-01] the AC50 was 5.96 µM.

Compound `CCC1=Nc2cc(C(=O)NCc3ccco3)ccc2Sc2ccc(C)cc21` [MLS000583106-01] has an AC50 of 8.41 µM.

In the case of `COc1ccc(-c2noc(-c3cccn3CC(=O)Nc3ccc(C)cc3C)n2)cc1F` [NCGC00445492-01], the AC50 is reported as 10.6 µM.

Compound `COc1cc2c(cc1OC1CCCC1)NC(=O)C21CCN(c2cnccn2)CC1` [NCGC00416906-01] has an AC50 of 7.69 µM.

`Cc1cc(C(=O)CN2C(=O)NC(c3ccccc3)(c3ccccc3)C2=O)c(C)n1Cc1ccco1` [MLS000056256-01] was tested, and the AC50 was 8.41 µM.

Compound `Cc1ccccc1N(C(=O)c1snc(C(N)=O)c1N)C(C(=O)NCC1CCCO1)c1ccc(N(C)C)cc1` (stereo not drawn) [MLS001218424-01] has an AC50 of 7.5 µM.

`O=C(Nc1cnc2ccccc2c1)c1cccc(-n2cnnn2)c1` [MLS000032104-01] gave an AC50 of 2.66 µM.

With `COc1ccc(OC)c([S+](=O)([O-])NC[C@H]2C[C@@H]3CCN2C[C@@H]3c2cc(-c3ccc(F)cc3)nn2C)c1` [NCGC00420960-01] the AC50 was 6.68 µM.

Work on `CCOC(=O)C1CCN(C(=O)c2cc3c(n2C)CCN(Cc2ccccc2)C3)CC1` [NCGC00430564-01] yielded an AC50 of 10.6 µM.

In the case of `CCOc1ccc2[nH]c3c(NCCN(C)C)ncnc3c2c1` [MLS001214990-01], the AC50 is reported as 16.8 µM.

For `O=C(C1CC1)N1CCc2cc(Br)cc([S+](=O)([O-])N3CCN(c4cccc(C(F)(F)F)c4)CC3)c21` [NCGC00104294-01], the AC50 was 4.73 µM.

`CC(C)N1CCN(Cc2ccc(-c3ccccc3)cc2)CC1CCO` (stereo not drawn) [MLS001000401-01] was tested, and the AC50 was 6.68 µM.
